Source: ChEMBL document CHEMBL1268832, “Discovery of a potent tubulin polymerization inhibitor: synthesis and evaluation of water-soluble prodrugs of benzophenone analog” (Bioorg Med Chem Lett, 2010)
Values after ≈ are worked out from the molar mass of the structure shown. Values belong to the compound of their own block, whether it stands above or below them. Active and inactive are the calls of the source. No cut-off for these calls is given here.

Legend:
[1] = test system: HL-60; assay: Antiproliferative activity against human HL60 cells after 72 hrs by MTT assay; type: functional, cell-based; settings: HL-60, 72 h
[2] = test system: CX-1; assay: Antitumor activity against human CX-1 cells xenografted in mouse assessed as tumor growth inhibition at 10 mg/kg, ip for every 4 days 4 doses; type: functional; set-up: scale not given: the % may be the effect or the level left; settings: route intraperitoneal
[3] = test system: Mus musculus; assay: Toxicity in human CX-1 cells xenografted in mouse assessed as chage in body weight at 10 mg/kg, ip for every 4 days 4 doses (Rbv = 24.5%); type: organism-based; set-up: dose 10 mg/kg, route intraperitoneal; settings: in vivo, 96 h
[4] = test system: CX-1; assay: Antitumor activity against human CX-1 cells xenografted in mouse assessed as mouse survival at 5 mg/kg, ip for every 4 days 4 doses; type: functional, organism-based; set-up: dose 5 mg/kg
[5] = test system: CX-1; assay: Antitumor activity against human CX-1 cells xenografted in mouse assessed as tumor growth inhibition at 5 mg/kg, ip for every 4 days 4 doses; type: functional; set-up: scale not given: the % may be the effect or the level left; settings: route intraperitoneal
[6] = test system: Mus musculus; assay: Toxicity in human CX-1 cells xenografted in mouse assessed as chage in body weight at 5 mg/kg, ip for every 4 days 4 doses (Rbv = 24.5%); type: organism-based; set-up: dose 5 mg/kg, route intraperitoneal; settings: in vivo, 96 h
[7] = test system: MDA-MB-231; assay: Antiproliferative activity against P-gp expressing multidrug-resistant human MDA-MB-231 cells after 72 hrs by MTT assay; type: functional, cell-based; settings: MDA-MB-231, 72 h
[8] = test system: CX-1; assay: Antitumor activity against human CX-1 cells xenografted in mouse assessed as mouse survival at 10 mg/kg, ip for every 4 days 4 doses; type: functional, organism-based; set-up: dose 10 mg/kg
[9] = Aqueous solubility of the compound in deionized water; type: physicochemical
[10] = Metabolic stability in dog liver microsomes assessed as compound remaining at 5 uM after 1 hr; type: ADME, Canis lupus familiaris, Microsome; settings: read-out: Stability
[11] = Half life in Sprague-Dawley rat at 10 mg/kg, iv; type: ADME, organism-based; set-up: dose 10 mg/kg, route intravenous; settings: in vivo
[12] = Metabolic stability in human liver microsomes assessed as compound remaining at 5 uM after 1 hr; type: ADME, Microsome; settings: read-out: Stability
[13] = test system: Mus musculus; assay: Toxicity in human HCT116 cells xenografted in mouse assessed as chage in body weight at 5 mg/kg, ip for every 4 days 4 doses (Rbv = -5.7%); type: organism-based, HCT-116; set-up: dose 5 mg/kg, route intraperitoneal; settings: in vivo, 96 h
[14] = test system: HCT-116; assay: Antitumor activity against human HCT116 cells xenografted in mouse assessed as mouse survival at 5 mg/kg, ip for every 4 days 4 doses; type: functional, organism-based; set-up: dose 5 mg/kg
[15] = test system: HCT-116; assay: Antitumor activity against human HCT116 cells xenografted in mouse assessed as tumor growth inhibition at 5 mg/kg, ip for every 4 days 4 doses; type: functional; set-up: scale not given: the % may be the effect or the level left; settings: route intraperitoneal
[16] = test system: Mus musculus; assay: Toxicity in human HCT116 cells xenografted in mouse assessed as chage in body weight at 10 mg/kg, ip for every 4 days 4 doses (Rbv = -5.7%); type: organism-based, HCT-116; set-up: dose 10 mg/kg, route intraperitoneal; settings: in vivo, 96 h
[17] = test system: HCT-116; assay: Antitumor activity against human HCT116 cells xenografted in mouse assessed as mouse survival at 10 mg/kg, ip for every 4 days 4 doses; type: functional, organism-based; set-up: dose 10 mg/kg
[18] = test system: HCT-116; assay: Antitumor activity against human HCT116 cells xenografted in mouse assessed as tumor growth inhibition at 10 mg/kg, ip for every 4 days 4 doses; type: functional; set-up: scale not given: the % may be the effect or the level left; settings: route intraperitoneal

IC50 [1]: 27 nM
Structure (SMILES): COc1cc(C(=O)c2ccc(-c3csc(NC(=O)CN)n3)cc2-n2cncn2)cc(OC)c1OC
Activity [2]: 44% | Activity [3]: 21% | Activity [4]: Active | Activity [5]: 40% | Activity [6]: 22.2%

IC50 [1]: 280 nM
Structure (SMILES): COc1cc(C(=O)c2ccc(-c3csc(NC(=O)[C@H](N)c4ccccc4)n3)cc2-n2cncn2)cc(OC)c1OC

IC50 [1]: > 2000 nM
Structure (SMILES): COc1cc(C(=O)c2ccc(-c3csc(NC(=O)[C@H](N)Cc4ccc(C(F)(F)F)cc4)n3)cc2-n2cncn2)cc(OC)c1OC

Structure (SMILES): COc1ccc(/C=C\c2cc(OC)c(OC)c(OC)c2)cc1N
IC50 [7]: 45 nM

IC50 [1]: 920 nM
Structure (SMILES): COc1cc(C(=O)c2ccc(-c3csc(NC(=O)[C@H](N)Cc4ccc(Cl)cc4)n3)cc2-n2cncn2)cc(OC)c1OC

IC50 [1]: 89 nM
Structure (SMILES): COc1cc(C(=O)c2ccc(-c3csc(NC(=O)[C@@H](N)Cc4ccccc4)n3)cc2-n2cncn2)cc(OC)c1OC
Activity [2]: 43% | Activity [3]: 24.5% | Activity [4]: Active | Activity [8]: Active | Activity [5]: 21% | Activity [6]: 28.9%

IC50 [1]: 86 nM
Structure (SMILES): COc1cc(C(=O)c2ccc(-c3csc(NC(=O)[C@@H](N)CC4CCCCC4)n3)cc2-n2cncn2)cc(OC)c1OC

Structure (SMILES): COc1cc(C(=O)c2ccc(-c3csc(N)n3)cc2-n2cncn2)cc(OC)c1OC
solubility [9]: < 100 µg/mL | remaining at 1 h, 5 µM [10]: 60% | half-life [11]: 1.65 min | remaining at 1 h, 5 µM [12]: 60% | IC50 [7]: 9.8 nM

IC50 [1]: 13 nM
Structure (SMILES): COc1cc(C(=O)c2ccc(-c3csc(NC(=O)[C@H](C)N)n3)cc2-n2cncn2)cc(OC)c1OC
Activity [13]: -1.7% | Activity [14]: Active | Activity [15]: 62%

IC50 [1]: 5 nM
Structure (SMILES): COc1cc(C(=O)c2ccc(-c3csc(NC(=O)C(C)(C)N)n3)cc2-n2cncn2)cc(OC)c1OC
Activity [2]: 20% | Activity [3]: 26.7% | Activity [4]: Active | Activity [8]: Active | Activity [5]: 23% | Activity [6]: 24.8%

IC50 [1]: 740 nM
Structure (SMILES): COc1cc(C(=O)c2ccc(-c3csc(NC(=O)[C@H](N)Cc4ccc(F)cc4)n3)cc2-n2cncn2)cc(OC)c1OC

IC50 [1]: 76 nM
Structure (SMILES): COc1cc(C(=O)c2ccc(-c3csc(NC(=O)[C@@H](N)CC(C)C)n3)cc2-n2cncn2)cc(OC)c1OC

IC50 [1]: 81 nM
Structure (SMILES): COc1cc(C(=O)c2ccc(-c3csc(NC(=O)[C@@H](N)CO)n3)cc2-n2cncn2)cc(OC)c1OC

IC50 [1]: 98 nM
Structure (SMILES): COc1cc(C(=O)c2ccc(-c3csc(NC(=O)[C@@H]4CCCN4)n3)cc2-n2cncn2)cc(OC)c1OC

solubility [9]: 930 µg/mL (≈ 1730 µM) | remaining at 1 h, 5 µM [10]: 10% | IC50 [1]: 110 nM | half-life [11]: 0.41 min | remaining at 1 h, 5 µM [12]: 15%
Structure (SMILES): COc1cc(C(=O)c2ccc(-c3csc(NC(=O)[C@@H](N)C(C)C)n3)cc2-n2cncn2)cc(OC)c1OC
Activity [2]: 64% | Activity [3]: 14.7% | Activity [4]: Active | Activity [8]: Active | Activity [5]: 28% | Activity [16]: 5.1% | Activity [17]: Active | Activity [18]: 88% | Activity [6]: 25.7%
